The record followed here is ChEMBL document CHEMBL1144686, “Solid-phase synthesis of new pyrrolobenzodiazepine-chalcone conjugates: DNA-binding affinity and anticancer activity” (2008).

The subject of assay [1] is DNA. Put plainly: Binding affinity to calf thymus DNA at pH 7.0 at 20 uM by thermal denaturation assay. It is filed as nucleic-acid assay. Particulars: Bos taurus.
The test system of assay [2] is DNA. Put plainly: Binding affinity to calf thymus DNA at pH 7.0 at 20 uM after 18 hrs by thermal denaturation assay. It is filed as nucleic-acid assay. Particulars: Bos taurus.
The test system of another assay is CCRF-CEM. The assay is described as follows: Growth inhibition of human CCRF-CEM cells. The assay is classed as functional.
For another assay, the system named is HL-60. Put plainly: Growth inhibition of human HL60(TB) cells. The assay is classed as functional.
Another assay has as its system K562. The assay is described as follows: Growth inhibition of human K562 cells. The assay is classed as functional.
The subject of a further assay is MOLT-4. Put plainly: Growth inhibition of human MOLT4 cells. The assay is classed as functional.
For the next assay, the system named is RPMI-8226. The assay is described as follows: Growth inhibition of human RPMI8226 cells. The assay is classed as functional.
The test system of the next assay is SR. The assay is described as follows: Growth inhibition of human SR cells. The assay is classed as functional.
The next assay deals with A549. The assay is described as follows: Growth inhibition of human A549 cells. The assay is classed as functional.
The subject of the next assay is EKVX. The assay is described as follows: Growth inhibition of human EKVX cells. It is filed as functional.
The subject of the next assay is HOP-62. The assay is described as follows: Growth inhibition of human HOP62 cells. The assay is classed as functional.
For the next assay, the system named is NCI-H322M. Put plainly: Growth inhibition of human NCI-H322M cells. The assay is classed as functional.
A further assay has as its system NCI-H460. Put plainly: Growth inhibition of human NCI-H460 cells. It is filed as functional.
In another assay the test system is NCI-H522. Put plainly: Growth inhibition of human NCI-H522 cells. The assay is classed as functional.
The next assay relates to COLO 205. Put plainly: Growth inhibition of human COLO 205 cells. The assay is classed as functional.
The next assay concerns HCC 2998. The assay is described as follows: Growth inhibition of human HCC2998 cells. The assay is classed as functional.
Another assay concerns HCT-116. Put plainly: Growth inhibition of human HCT116 cells. The assay is classed as functional.
For a further assay, the system named is HCT-15. Put plainly: Growth inhibition of human HCT15 cells. It is filed as functional.
A further assay concerns HT-29. The assay is described as follows: Growth inhibition of human HT29 cells. It is filed as functional.
The subject of the next assay is KM12. Put plainly: Growth inhibition of human KM12 cells. It is filed as functional.
For a further assay, the system named is SW-620. The assay is described as follows: Growth inhibition of human SW620 cells. It is filed as functional.
Another assay relates to SF-268. Put plainly: Growth inhibition of human SF268 cells. It is filed as functional.
In the next assay the test system is SF-539. Put plainly: Growth inhibition of human SF539 cells. It is filed as functional.
The subject of another assay is SNB-19. Put plainly: Growth inhibition of human SNB19 cells. It is filed as functional.
For the next assay, the system named is SNB-75. The assay is described as follows: Growth inhibition of human SNB75 cells. It is filed as functional.
Another assay concerns U-251. Put plainly: Growth inhibition of human U251 cells. The assay is classed as functional.
For a further assay, the system named is LOX IMVI. Put plainly: Growth inhibition of human LOX IMVI cells. It is filed as functional.
For the next assay, the system named is Malme-3M. The assay is described as follows: Growth inhibition of human MALME-3M cells. It is filed as functional.
The test system of the next assay is M14. Put plainly: Growth inhibition of human M14 cells. It is filed as functional.
The test system of a further assay is SK-MEL-2. The assay is described as follows: Growth inhibition of human SK-MEL-2 cells. It is filed as functional.
In another assay the test system is SK-MEL-28. Put plainly: Growth inhibition of human SK-MEL-28 cells. The assay is classed as functional.
A further assay deals with SK-MEL-5. Put plainly: Growth inhibition of human SK-MEL-5 cells. The assay is classed as functional.
In the next assay the test system is UACC-257. The assay is described as follows: Growth inhibition of human UACC257 cells. It is filed as functional.
The subject of the next assay is UACC-62. Put plainly: Growth inhibition of human UACC62 cells. The assay is classed as functional.
In a further assay the test system is IGROV-1. Put plainly: Growth inhibition of human IGROV1 cells. It is filed as functional.
The next assay relates to OVCAR-3. The assay is described as follows: Growth inhibition of human OVCAR-3 cells. The assay is classed as functional.
The next assay deals with OVCAR-4. Put plainly: Growth inhibition of human OVCAR4 cells. It is filed as functional.
The subject of another assay is OVCAR-5. Put plainly: Growth inhibition of human OVCAR5 cells. The assay is classed as functional.
The subject of the next assay is OVCAR-8. The assay is described as follows: Growth inhibition of human OVCAR8 cells. The assay is classed as functional.
In the next assay the test system is SK-OV-3. The assay is described as follows: Growth inhibition of human SK-OV-3 cells. The assay is classed as functional.
The subject of the next assay is 786-0. Put plainly: Growth inhibition of human 786-0 cells. It is filed as functional.
The test system of a further assay is ACHN. The assay is described as follows: Growth inhibition of human ACHN cells. It is filed as functional.
In the next assay the test system is CAKI-1. The assay is described as follows: Growth inhibition of human CAKI1 cells. The assay is classed as functional.
In a further assay the test system is RXF 393. Put plainly: Growth inhibition of human RXF 393 cells. The assay is classed as functional.
For the next assay, the system named is SN12C. Put plainly: Growth inhibition of human SN12C cells. The assay is classed as functional.
The test system of the next assay is TK-10. The assay is described as follows: Growth inhibition of human TK10 cells. It is filed as functional.
The test system of the next assay is UO-31. The assay is described as follows: Growth inhibition of human UO31 cells. The assay is classed as functional.
The nature of assay [3]: Growth inhibition of human HS 578T cells. It is filed as functional.
For another assay, the system named is DU-145. Put plainly: Growth inhibition of human DU145 cells. The assay is classed as functional.
The next assay deals with MCF7. Put plainly: Growth inhibition of human MCF7 cells. It is filed as functional.
A further assay concerns NCI/ADR-RES. Put plainly: Growth inhibition of human NCI/ADR-RES cells. It is filed as functional.
Assay [4] is described as follows: Growth inhibition of human 231/ATCC cells. It is filed as functional.
In another assay the test system is MDA-MB-435. Put plainly: Growth inhibition of human MDA-MB-435 cells. It is filed as functional.
Another assay has as its system BT-549. Put plainly: Growth inhibition of human BT549 cells. It is filed as functional.
The next assay has as its system T47D. The assay is described as follows: Growth inhibition of human T47D cells. It is filed as functional.
In a further assay the test system is MDA-MB-468. Put plainly: Growth inhibition of human MDA-MB-468 cells. The assay is classed as functional.
The test system of another assay is HOP-92. The assay is described as follows: Growth inhibition of human HOP92 cells. It is filed as functional.
In a further assay the test system is NCI-H226. The assay is described as follows: Growth inhibition of human NCI-H226 cells. The assay is classed as functional.
A further assay concerns NCI-H23. The assay is described as follows: Growth inhibition of human NCI-H23 cells. The assay is classed as functional.
The subject of the next assay is L1210. Put plainly: Cytotoxicity against mouse L1210 cells. It is filed as functional. Particulars: read-out: LC50 (the source's name).
A further assay concerns PC-6. The assay is described as follows: Cytotoxicity against human PC6 cells. It is filed as functional. Particulars: read-out: LD50 (the source's name).

As to `COc1cc(/C=C/C(=O)c2ccccc2O)ccc1OCCCCOc1cc2c(cc1OC)C(=O)N1CCC[C@H]1C(=O)N2`, the values for the deltaTm in the assay with DNA [1] and in the assay with DNA [2] were 1 °C and 1.9 °C, respectively.

Consider `COc1cc(/C=C/C(=O)c2ccccc2O)ccc1OCCCOc1cc2c(cc1OC)C(=O)N1CCC[C@H]1C(=O)N2`, for which the values for the deltaTm in the assay on DNA [1] and in the assay on DNA [2] were 2 °C and 3.5 °C, respectively.

On to `COc1cc(/C=C/C(=O)c2ccccc2O)ccc1OCCCCCOc1cc2c(cc1OC)C(=O)N1CCC[C@H]1C=N2`, for which the deltaTm with DNA [1] was 3.1 °C; in the assay with DNA [2], 5 °C.

Turning to `COc1cc(/C=C/C(=O)c2ccccc2O)ccc1OCCCCCOc1cc2c(cc1OC)C(=O)N1CCC[C@H]1C(=O)N2`, the figures for the deltaTm in the assay on DNA [1] and in the assay with DNA [2] were 7.1 °C and 9 °C, respectively.

As usually defined, the GI50 is the concentration at which growth is held to half of that of the control. Lower therefore signals more potent growth inhibition. Regarding `COc1cc(/C=C/C(=O)c2ccccc2O)ccc1OCCCOc1cc2c(cc1OC)C(=O)N1CCC[C@H]1C=N2`, the deltaTm in the assay on DNA [1] worked out at 5 °C; in the assay with DNA [2], 8.1 °C. Also, the GI50 in the assay with CCRF-CEM turned out to be 21 nM; with HL-60, 17 nM; in the assay with K562 it was 26 nM; with MOLT-4 it was 17 nM; in the assay on RPMI-8226, 25 nM; in the assay on SR, 12 nM. For the same molecule, the GI50 amounted to 31 nM in the assay on A549; 204 nM in the assay with EKVX; 39 nM with HOP-62; 307 nM in the assay with NCI-H322M; 34 nM in the assay with NCI-H460; 26 nM in the assay with NCI-H522. The GI50 with COLO 205 came out at 27 nM; with HCC 2998 it was 138 nM; in the assay on HCT-116, 33 nM; in the assay on HCT-15 it was 247 nM; in the assay with HT-29, 30 nM; with KM12, 18 nM. For the same molecule, the GI50 with SW-620 came out at 19 nM; in the assay with SF-268, 24 nM; in the assay with SF-539, 28 nM; with SNB-19, 29 nM; with SNB-75 it was 36 nM; with U-251 it was 22 nM. For the same molecule, the GI50 is 18 nM in the assay on LOX IMVI; 37 nM in the assay with Malme-3M; 46 nM with M14; 67 nM with SK-MEL-2; 20 nM with SK-MEL-28; 24 nM in the assay with SK-MEL-5. In addition, the concentration for 50% growth inhibition (GI50) in the assay on UACC-257 turned out to be 112 nM; in the assay with UACC-62 it was 21 nM; with IGROV-1, 18 nM; in the assay with OVCAR-3, 21 nM; in the assay on OVCAR-4 it was 61 nM; in the assay on OVCAR-5, 25 nM. Further, the 50% growth inhibitory concentration (GI50) in the assay on OVCAR-8 worked out at 36 nM; in the assay with SK-OV-3, 406 nM; with 786-0, 25 nM; in the assay with ACHN, 47 nM; in the assay on CAKI-1 it was 25 nM; with RXF 393 it was 20 nM. In addition, the concentration for 50% growth inhibition (GI50) was determined as 28 nM in the assay on SN12C; 41 nM in the assay with TK-10; 105 nM in the assay with UO-31; 23 nM in assay [3]; 25 nM in the assay on DU-145; 32 nM in the assay on MCF7. Besides, the GI50 is 308 nM in the assay with NCI/ADR-RES; 26 nM in assay [4]; 19 nM in the assay with MDA-MB-435; 17 nM in the assay with BT-549; 29 nM in the assay on T47D; 16 nM in the assay with MDA-MB-468. Further, the values for the GI50 in the assay on HOP-92, in the assay on NCI-H226 and in the assay with NCI-H23 were 44 nM, 138 nM and 39 nM, respectively.

Consider `COc1cc2c(cc1O)N=C[C@@H]1CCCN1C2=O`, for which the deltaTm amounted to 0.3 °C in the assay with DNA [1] and 0.7 °C with DNA [2]. In addition, the CC50 was 380 nM with L1210 and 330 nM with PC-6.

In the case of `COc1cc(/C=C/C(=O)c2ccccc2O)ccc1OCCCCOc1cc2c(cc1OC)C(=O)N1CCC[C@H]1C=N2`, the deltaTm was 1.7 °C in the assay with DNA [1] and 2.1 °C in the assay with DNA [2].
